How the values were obtained:
[1] = test system: murine microglia BV-2 cells; assay: NO release by LPS-activated BV-2 microglia (Griess test); assay type: cell-based; conditions: 0.1 μg/ml LPS overnight; for effect on release of NO into the culture medium (FIG. 1): PS 10 and 30 μM, curcumin 2.5 and 5 μM
Procedure: PS (sodium salt), produced and purified according to EP1890706 (example 3), was resuspended in 2:1 chloroform/methanol, dried by evaporation and resuspended in PBS at the final concentration of 100 μM. 95% pure curcumin, prepared in DMSO at the final active ingredient concentration of 20 mM, was used for this experiment.
An in vitro glial activation model using the murine microglia BV-2 cell line was selected for this experiment:
50,000 cells/well were initially seeded in 96-well plates and cultured in DMEM containing 10% FCS, glutamine and antibiotics at 37° C. If activated with LPS (lipopolysaccharide, an endotoxin of Gram-negative bacterial, normally used as pro-inflammatory stimulus both in vitro and in vivo), these cells release NO into the culture medium; the experiment therefore involved stimulating them with 0.1 μg/ml LPS overnight in the presence or absence of PS (10 and 30 μM) or curcumin (2.5 and 5 μM) at different concentrations.
Finally, to evaluate the synergy between the two active constituents, the PS/curcumin combination was tested in the presence of LPS 0.1 μg/ml (as described above):
10 μM PS+2.5 μM curcumin, and
The final NO content in the medium was measured with the Griess test: briefly, aliquots of medium were mixed with equal volumes of Griess reagent (0.1% N(1-naphthyl)ethylenediamine dihydrochloride, 1% sulphanylamide and 0.4M HCl). After 15 minutes' reaction, the absorbance was measured at 570 nm.

[2] = test system: neural progenitor cells (NPCs); assay: Neuronal differentiation (βIII tubulin) of NPCs exposed to medium of LPS-activated microglia; assay type: cell-based, mice; conditions: alone, 1 and 5 μM; NPCs with medium of LPS-activated microglia, 6 days
Procedure: Cultures of stem cells/neural progenitor cells (NPCs) obtained from the subventricular zone of adult mice were used. The NPCs were cultured under conditions of differentiation by mechanical dissociation of the neurospheres and seeding of the individual cells on plates coated with poly-ornithine and laminin in a culture medium only containing factor bFGF, according to state-of-the-art techniques.
The NPC cultures thus obtained were divided into aliquots, each of which was treated differently, as follows:
b) treatment a) and PS and curcumin administered separately at different concentrations;
c) treatment a) and PS/curcumin combined at different relative concentrations.
The control was represented by untreated NPC cells.
Neuronal differentiation was evaluated after 6 days, by immunocytochemical analysis with antibodies directed against the specific marker βIII tubulin, extrapolating the % concentration of protein present in the medium.

microglia BV-2 cells = assay: IL-1β release from LPS-stimulated BV-2 cells (ELISA); assay type: cell-based, murine; conditions: administered individually, 0.1 μg/ml LPS 16 hours; for inhibition of IL-1β release (FIG. 4): 1 μM or 5 μM; for inhibition of IL-1β release at the higher concentration (FIG. 4): 5 μM
Procedure: The experiment was conducted in two steps, and was designed to evaluate the effect on in vitro release of IL-1β from microglia BV-2 cells stimulated with LPS after administration of PS and curcumin. IL-1β is a cytokine strongly involved in the inflammatory processes underlying both osteoarticular disorders and neurodegeneration.
Murine microglial BV-2 cells were stimulated as described in Example 3 (0.1 μg/ml LPS for 16 hours) and then treated with PS and curcumin at the concentration of 1 μM or 5 μM. The IL-1β levels were determined by ELISA assay. The control (CTRL) was represented by cells stimulated with LPS but not treated.
At the second stage of the experiment the effects of the combination of the two substances were evaluated on the same parameter according to the same protocol.

Row | Molecule | inhibition at 5 µM ([1]; Mus musculus, single treatment of 5 μM curcumin, read-out: inhibition of NO release into the culture medium) | effect on release of NO into the culture medium (FIG. 1) [1] | percentage of cells positive to βIII tubulin (FIG. 6) [2] | inhibition of IL-1β release (FIG. 4) (microglia BV-2 cells) | inhibition of IL-1β release at the higher concentration (FIG. 4) (microglia BV-2 cells) | inhibition of NO release into the culture medium ([1]; single treatment of 10 μM PS)
1 | COc1cc(C=CC(=O)CC(=O)C=Cc2ccc(O)c(OC)c2)ccc1O [curcumin, 1,7-bis[4-hydroxy-3-methoxyphenyl]-1,6-heptadiene-3,5-dione] | < 20% | inhibit the release of NO into the medium in a dose-dependent manner | did not differ significantly from that observed in the presence of LPS alone | neither PS nor curcumin, administered individually, significantly inhibits the release of IL-1β | limited effect | –
2 | phosphatidylserine [PS] | – | inhibit the release of NO into the medium in a dose-dependent manner | did not differ significantly from that observed in the presence of LPS alone | neither PS nor curcumin, administered individually, significantly inhibits the release of IL-1β | limited effect | ≤ 10%

Reference: patent US9381204B2, “Pharmaceutical compositions containing phosphatidylserine and curcumin” (FIDIA FARMACEUTICI S.P.A., priority 2012, dated 2016)
